# Target: T1, STAT6 protein (Homo sapiens, UniProt P42226)
# T1 sequence (P42226 1-847): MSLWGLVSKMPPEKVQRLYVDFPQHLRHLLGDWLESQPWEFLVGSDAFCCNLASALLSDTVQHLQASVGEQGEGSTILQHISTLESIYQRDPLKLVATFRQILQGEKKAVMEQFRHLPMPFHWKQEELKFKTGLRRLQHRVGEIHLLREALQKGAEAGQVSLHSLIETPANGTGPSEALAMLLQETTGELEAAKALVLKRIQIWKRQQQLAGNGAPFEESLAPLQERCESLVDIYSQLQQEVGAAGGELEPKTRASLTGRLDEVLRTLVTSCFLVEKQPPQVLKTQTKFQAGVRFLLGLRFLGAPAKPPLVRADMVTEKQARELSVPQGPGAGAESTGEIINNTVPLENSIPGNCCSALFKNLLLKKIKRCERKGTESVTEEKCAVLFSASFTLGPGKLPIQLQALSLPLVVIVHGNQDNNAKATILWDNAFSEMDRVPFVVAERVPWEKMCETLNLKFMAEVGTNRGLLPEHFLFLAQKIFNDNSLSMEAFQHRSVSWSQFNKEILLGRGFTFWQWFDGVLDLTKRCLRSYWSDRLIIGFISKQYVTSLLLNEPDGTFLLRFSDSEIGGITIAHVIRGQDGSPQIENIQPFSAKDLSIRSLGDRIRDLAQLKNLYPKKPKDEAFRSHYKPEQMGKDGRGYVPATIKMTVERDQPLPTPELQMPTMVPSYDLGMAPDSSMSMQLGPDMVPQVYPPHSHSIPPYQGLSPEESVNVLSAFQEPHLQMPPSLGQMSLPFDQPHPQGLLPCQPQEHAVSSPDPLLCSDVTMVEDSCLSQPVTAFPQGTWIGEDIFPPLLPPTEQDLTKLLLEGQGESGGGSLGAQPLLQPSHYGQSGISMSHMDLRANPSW
# Test: Fluorescence polarization (FP) binding assay, STAT6
# Settings: FP competition, 5 nM fluorescein-labeled tracer, 200 nM protein, PBS pH7.4; read-out: Binding STAT6
# Outline: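 5 nM fluorescein tracer + 200 nM STAT protein; PBS pH 7.4, 0.01% BGG, 0.01% Tween-20, 2 mM DTT; shake 15 min, 1 h RT equilibrium; FP read; nonlinear fit for inhibition constants.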
row,Compound,Ki
1,"CC(C)(C)[C@H](NC(=O)c1cc2cc(C(F)(F)P(=O)(O)O)ccc2s1)C(=O)N1C[C@H](Oc2ccccc2)C[C@H]1C(=O)N1CCO[C@H](c2ccccc2)C1 [Compound 299, ((2-(((S)-3,3-dimethyl-1-oxo-1-((2S,4R)-4-phenoxy-2-((R)-2-phenylmorpholine-4-carbonyl)pyrrolidin-1-yl)butan-2-yl)carbamoyl)benzo[b]thiophen-5-yl)difluoromethyl)phosphonic acid]",0.1 to 1 µM
2,"CN1CC[C@H]2CC[C@@H](C(=O)N3CCc4ccccc4C3)N2C(=O)[C@@H](NC(=O)c2cc3cc(C(F)(F)P(=O)(O)O)ccc3[nH]2)C1 [Compound 330, (difluoro(2-(((5S,8S,10aR)-3-methyl-6-oxo-8-(1,2,3,4-tetrahydroisoquinoline-2-carbonyl)decahydropyrrolo[1,2-a][1,5]diazocin-5-yl)carbamoyl)-1H-indol-5-yl)methyl)phosphonic acid]",> 10 µM
3,"CN1CC[C@H]2CC[C@@H](C(=O)N3CCc4ccccc4C3)N2C(=O)[C@@H](NC(=O)c2cc3cc(C(F)(F)P(=O)(O)O)ccc3s2)C1 [Compound 331, (difluoro(2-(((5S,8S,10aR)-3-methyl-6-oxo-8-(1,2,3,4-tetrahydroisoquinoline-2-carbonyl)decahydropyrrolo[1,2-a][1,5]diazocin-5-yl)carbamoyl)benzo[b]thiophen-5-yl)methyl)phosphonic acid]",> 10 µM
4,"CC(=O)N1CC[C@H]2CC[C@@H](C(=O)N3CCc4ccccc4C3)N2C(=O)[C@@H](NC(=O)c2cc3cc(C(F)(F)P(=O)(O)O)ccc3[nH]2)C1 [Compound 332, ((2-(((5S,8S,10aR)-3-acetyl-6-oxo-8-(1,2,3,4-tetrahydroisoquinoline-2-carbonyl)decahydropyrrolo[1,2-a][1,5]diazocin-5-yl)carbamoyl)-1H-indol-5-yl)difluoromethyl)phosphonic acid]",> 10 µM
5,"CC(=O)N1CC[C@H]2CC[C@@H](C(=O)N3CCc4ccccc4C3)N2C(=O)[C@@H](NC(=O)c2cc3cc(C(F)(F)P(=O)(O)O)ccc3s2)C1 [Compound 333, ((2-(((5S,8S,10aR)-3-acetyl-6-oxo-8-(1,2,3,4-tetrahydroisoquinoline-2-carbonyl)decahydropyrrolo[1,2-a][1,5]diazocin-5-yl)carbamoyl)benzo[b]thiophen-5-yl)difluoromethyl)phosphonic acid]",> 10 µM
6,"CC(=O)N1CC[C@H]2CC[C@@H](C(=O)N3CCc4ccccc4C3)N2C(=O)[C@@H](NC(=O)c2ccc3ccc(C(F)(F)P(=O)(O)O)cc3c2)C1 [Compound 334, ((7-(((5S,8S,10aR)-3-acetyl-6-oxo-8-(1,2,3,4-tetrahydroisoquinoline-2-carbonyl)decahydropyrrolo[1,2-a][1,5]diazocin-5-yl)carbamoyl)naphthalen-2-yl)difluoromethyl)phosphonic acid]",> 10 µM
7,"CC(=O)N1CC[C@H]2CC[C@@H](C(=O)NCc3ccccc3)N2C(=O)[C@@H](NC(=O)c2cc3cc(C(F)(F)P(=O)(O)O)ccc3[nH]2)C1 [Compound 335, ((2-(((5S,8S,10aR)-3-acetyl-8-(benzylcarbamoyl)-6-oxodecahydropyrrolo[1,2-a][1,5]diazocin-5-yl)carbamoyl)-1H-indol-5-yl)difluoromethyl)phosphonic acid]",> 10 µM
8,"CC(=O)N1CC[C@H]2CC[C@@H](C(=O)N(C)Cc3ccccc3)N2C(=O)[C@@H](NC(=O)c2cc3cc(C(F)(F)P(=O)(O)O)ccc3[nH]2)C1 [Compound 336, ((2-(((5S,8S,10aR)-3-acetyl-8-(benzyl(methyl)carbamoyl)-6-oxodecahydropyrrolo[1,2-a][1,5]diazocin-5-yl)carbamoyl)-1H-indol-5-yl)difluoromethyl)phosphonic acid]",1 to 10 µM

# Now from value to compound:
row,Ki,Compound
1,0.1 to 1 µM,"O=C(N[C@@H](CC1CCNCC1)C(=O)N1CCC[C@H]1C(=O)N1CCO[C@H](c2ccccc2)C1)c1cc2cc(C(F)(F)P(=O)(O)O)ccc2s1 [Compound 290, (difluoro(2-(((S)-1-oxo-1-((S)-2-((R)-2-phenylmorpholine-4-carbonyl)pyrrolidin-1-yl)-3-(piperidin-4-yl)propan-2-yl)carbamoyl)benzo[b]thiophen-5-yl)methyl)phosphonic acid]"
2,0.1 to 1 µM,"CN1CCC(C[C@H](NC(=O)c2cc3cc(C(F)(F)P(=O)(O)O)ccc3s2)C(=O)N2CCC[C@H]2C(=O)N2CCO[C@H](c3ccccc3)C2)CC1 [Compound 291, (difluoro(2-(((S)-3-(1-methylpiperidin-4-yl)-1-oxo-1-((S)-2-((R)-2-phenylmorpholine-4-carbonyl)pyrrolidin-1-yl)propan-2-yl)carbamoyl)benzo[b]thiophen-5-yl)methyl)phosphonic acid]"
3,0.1 to 1 µM,"CCN1CCC(C[C@H](NC(=O)c2cc3cc(C(F)(F)P(=O)(O)O)ccc3s2)C(=O)N2CCC[C@H]2C(=O)N2CCO[C@H](c3ccccc3)C2)CC1 [Compound 292, ((2-(((S)-3-(1-ethylpiperidin-4-yl)-1-oxo-1-((S)-2-((R)-2-phenylmorpholine-4-carbonyl)pyrrolidin-1-yl)propan-2-yl)carbamoyl)benzo[b]thiophen-5-yl)difluoromethyl)phosphonic acid]"
4,0.1 to 1 µM,"CC(C)CCN1CCC(C[C@H](NC(=O)c2cc3cc(C(F)(F)P(=O)(O)O)ccc3s2)C(=O)N2CCC[C@H]2C(=O)N2CCO[C@H](c3ccccc3)C2)CC1 [Compound 293, (difluoro(2-(((S)-3-(1-isopentylpiperidin-4-yl)-1-oxo-1-((S)-2-((R)-2-phenylmorpholine-4-carbonyl)pyrrolidin-1-yl)propan-2-yl)carbamoyl)benzo[b]thiophen-5-yl)methyl)phosphonic acid]"
5,0.1 to 1 µM,"O=C(N[C@@H](CC1CCN(CC2CCCCC2)CC1)C(=O)N1CCC[C@H]1C(=O)N1CCO[C@H](c2ccccc2)C1)c1cc2cc(C(F)(F)P(=O)(O)O)ccc2s1 [Compound 294, ((2-(((S)-3-(1-(cyclohexylmethyl)piperidin-4-yl)-1-oxo-1-((S)-2-((R)-2-phenylmorpholine-4-carbonyl)pyrrolidin-1-yl)propan-2-yl)carbamoyl)benzo[b]thiophen-5-yl)difluoromethyl)phosphonic acid]"
6,0.1 to 1 µM,"CCC(CC)CN1CCC(C[C@H](NC(=O)c2cc3cc(C(F)(F)P(=O)(O)O)ccc3s2)C(=O)N2CCC[C@H]2C(=O)N2CCO[C@H](c3ccccc3)C2)CC1 [Compound 295, ((2-(((S)-3-(1-(2-ethylbutyl)piperidin-4-yl)-1-oxo-1-((S)-2-((R)-2-phenylmorpholine-4-carbonyl)pyrrolidin-1-yl)propan-2-yl)carbamoyl)benzo[b]thiophen-5-yl)difluoromethyl)phosphonic acid]"
7,0.1 to 1 µM,"O=C(N[C@@H](CC1CCN(CCc2ccccc2)CC1)C(=O)N1CCC[C@H]1C(=O)N1CCO[C@H](c2ccccc2)C1)c1cc2cc(C(F)(F)P(=O)(O)O)ccc2s1 [Compound 296, (difluoro(2-(((S)-1-oxo-3-(1-phenethylpiperidin-4-yl)-1-((S)-2-((R)-2-phenylmorpholine-4-carbonyl)pyrrolidin-1-yl)propan-2-yl)carbamoyl)benzo[b]thiophen-5-yl)methyl)phosphonic acid]"
8,0.1 to 1 µM,"O=C(N[C@@H](CC1CCN(CCCc2ccccc2)CC1)C(=O)N1CCC[C@H]1C(=O)N1CCO[C@H](c2ccccc2)C1)c1cc2cc(C(F)(F)P(=O)(O)O)ccc2s1 [Compound 297, (difluoro(2-(((S)-1-oxo-1-((S)-2-((R)-2-phenylmorpholine-4-carbonyl)pyrrolidin-1-yl)-3-(1-(3-phenylpropyl)piperidin-4-yl)propan-2-yl)carbamoyl)benzo[b]thiophen-5-yl)methyl)phosphonic acid]"
9,< 0.1 µM,"CC(C)(C)[C@H](NC(=O)c1cc2cc(C(F)(F)P(=O)(O)O)ccc2s1)C(=O)N1C[C@H](OCc2ccccc2)C[C@H]1C(=O)N1CCO[C@H](c2ccccc2)C1 [Compound 300, ((2-(((S)-1-((2S,4R)-4-(benzyloxy)-2-((R)-2-phenylmorpholine-4-carbonyl)pyrrolidin-1-yl)-3,3-dimethyl-1-oxobutan-2-yl)carbamoyl)benzo[b]thiophen-5-yl)difluoromethyl)phosphonic acid]"
10,< 0.1 µM,"CC(C)(C)[C@H](NC(=O)c1cc2cc(C(F)(F)P(=O)(O)O)ccc2s1)C(=O)N1C[C@@H](Oc2ccccc2)C[C@H]1C(=O)N1CCO[C@H](c2ccccc2)C1 [Compound 301, ((2-(((S)-3,3-dimethyl-1-oxo-1-((2S,4S)-4-phenoxy-2-((R)-2-phenylmorpholine-4-carbonyl)pyrrolidin-1-yl)butan-2-yl)carbamoyl)benzo[b]thiophen-5-yl)difluoromethyl)phosphonic acid]"
